For data set [1], the target named is T1, Mcl-1 ΔNΔC (Homo sapiens, UniProt Q07820).
T1 construct: GST (N, cleaved yes); made in house; host or cells: Escherichia coli BL21 (DE3), pGEX-4T
Description: Fluorescence polarization direct binding of FITC-SAHBs to MCL-1ΔNΔC. The settings on record: FPA. The protocol: (§1) Binding assays were performed as previously described (Pitter et al., Methods Enzymol 446, 387 (2008). Briefly, FITC-SAHB (50 nM) was added to serial dilutions of FPLC-purified recombinant protein in binding buffer (50 mM Tris, 100 mM NaCl, pH 8.0). For competition assays, serial dilutions of acetylated MCL-1 SAHBs were mixed with FITC-BAK SAHB (25 nM), followed by addition of MCL-1ΔNΔC (100 nM) diluted in binding buffer (50 mM Tris, 100 mM NaCl, pH 8.0). Multiwell plates were incubated in the dark at room temperature until equilibrium was reached and fluorescence polarization (mP units) was measured by microplate reader (SpectraMax, Molecular Devices). For direct binding experiments, dissociation constants (KD) were calculated by nonlinear regression analysis of dose-response curves using Prism software (Graphpad). For competition experiments, Ki values were determined by nonlinear regression analysis of dose-response curves using a one-site competition model.
To measure the binding activity of SAHBs for MCL-1, fluorescence polarization binding assays were performed (FIG. 8). […] Fluorescence polarization was measured on a BMG POLARstar Optima or Spectramax and dissociation constants determined by nonlinear regression analysis using Prism software 4.0 (Graphpad) (FIG. 8). […]
On the technique in general: In fluorescence polarisation assays a small probe gives low polarisation when free and higher when bound to something large.

In a further data set the target is recombinant BCL-XLΔC (Homo sapiens, UniProt Q07817). Description: Fluorescence polarization direct binding of FITC-SAHBs to BCL-XLΔC. The settings on record: FPA. The protocol: as §1
recombinant BCL-XLΔC, sequence (Q07817 1-209, stated change not applied): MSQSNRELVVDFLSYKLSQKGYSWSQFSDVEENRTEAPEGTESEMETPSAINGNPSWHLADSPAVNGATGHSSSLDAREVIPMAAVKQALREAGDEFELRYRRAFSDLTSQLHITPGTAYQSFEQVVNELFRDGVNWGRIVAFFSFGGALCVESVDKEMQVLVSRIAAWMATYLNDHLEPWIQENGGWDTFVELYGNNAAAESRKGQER
Recombinant carboxy-terminal deleted anti-apoptotic proteins were expressed using the pGEX-4T vector, and purified as described for rMCL-1. The purified proteins were incubated with FITC-SAHBs, and binding affinities were analyzed by fluorescence polarization assay as described above. […] Optionally, design and optimization of tailored SAHB compounds for anti-apoptotic targeting also employed computational modeling.

The subject of a further data set is recombinant BFL-1/A1ΔC. Description: Fluorescence polarization direct binding of FITC-SAHBs to BFL-1/A1ΔC. The settings on record: FPA. The protocol: as §1
(§2) Compounds that bound MCL-1 with high affinity were analyzed for MCL-1 selectivity by measuring SAHB affinities for recombinant BCL-XLΔC, BCL-WΔC and BFL-1/A1ΔC (FIG. 8B). […] The purified proteins were incubated with FITC-SAHBs, and binding affinities were analyzed by fluorescence polarization assay as described above. […]

A further data set relates to recombinant BCL-wΔC. Description: Fluorescence polarization direct binding of FITC-SAHBs to BCL-wΔC. Particulars: FPA. The method, then: as §1, §2
The subject of data set [2] is MCL-1ΔNΔC, BCL-2ΔC, BCL-XLΔC, BCL-wΔC and BFL-1/A1ΔC. Description: FPA selectivity across panel of anti-apoptotic proteins. The class given is binding. The settings on record: FPA against anti-apoptotic panel. The method, then:
as §1
Compounds that bound MCL-1 with high affinity were analyzed for MCL-1 selectivity by measuring SAHB affinities for recombinant BCL-XLΔC, BCL-WΔC and BFL-1/A1ΔC (FIG. 8B). Recombinant carboxy-terminal deleted anti-apoptotic proteins were expressed using the pGEX-4T vector, and purified as described for rMCL-1. The purified proteins were incubated with FITC-SAHBs, and binding affinities were analyzed by fluorescence polarization assay as described above. […] Optionally, design and optimization of tailored SAHB compounds for anti-apoptotic targeting also employed computational modeling.
After the experiments set forth above, further members of the library of stabilized alpha-helices of BCL-2 domains (SAHBs) modeled after the BH3 domains of BCL-2 family proteins were generated in order to identify potent and selective inhibitors of MCL-1. The native alpha-helical structure of BH3 domains was reinforced by incorporating non-natural amino acids containing olefin tethers at the (i, i+4) positions of the non-interacting face, followed by ruthenium catalyzed olefin metathesis to yield a panel of stapled BH3 domains (FIG. 7). Fluorescence polarization assays (FPA) were performed to measure the binding affinity of fluorescently labeled SAHBs for recombinant human MCL-1ΔNΔC (amino acids 172-320), a deletion construct that contains the BH3-binding pocket and affords enhanced expression, purity, and stability. […] To identify MCL-1-selective SAHBs, we first screened for recombinant BCL-XLΔC binding, which eliminated PUMA, BID, BIM, BOK, BAX, and BAK SAHBs and then for recombinant BFL1/A1ΔC binding, which eliminated NOXA SAHB.

For data set [3], the target named is T2, MCL-1/BAK interaction in U937 AML cells (Homo sapiens, UniProt Q07820).
T2 construct: MCL-1 over-expressing cancer cells, such as OPM2 multiple myeloma and U937 AML cells; endogenous in cells; host or cells: U937 AML cells
T2 sequence (Q07820 whole entry): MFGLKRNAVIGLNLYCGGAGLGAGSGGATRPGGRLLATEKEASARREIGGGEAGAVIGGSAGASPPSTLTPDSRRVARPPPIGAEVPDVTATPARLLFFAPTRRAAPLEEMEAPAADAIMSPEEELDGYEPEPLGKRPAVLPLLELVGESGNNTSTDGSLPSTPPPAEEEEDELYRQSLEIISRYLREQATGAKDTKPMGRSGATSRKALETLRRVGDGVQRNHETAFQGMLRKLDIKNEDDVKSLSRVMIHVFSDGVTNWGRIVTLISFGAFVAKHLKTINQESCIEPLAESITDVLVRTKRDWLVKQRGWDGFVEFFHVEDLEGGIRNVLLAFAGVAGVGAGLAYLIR
Description: MCL-1 immunoprecipitation / BAK western in U937 cells. Particulars: MCL-1 co-immunoprecipitation. The class given is cell-based. The method, then:
After cellular lysis in 50 mM Tris (pH 7.4), 150 mM NaCl, 1 mM EDTA, 1% CHAPS and complete protease inhibitor pellet, cellular debris was pelleted at 14,000 g for 10 minutes at 4° C. The supernatant was incubated with pre-equilibrated protein A/G sepharose beads. The pre-cleared supernatant was treated with anti-MCL-1 antibody for 1.5 hours at 4° C. with rotation, followed by exposure to the protein A/G sepharose beads for 1 hour. The beads were pelleted and washed with lysis buffer for 10 minutes at 4° C. The washed beads were pelleted, heated to 90° C. for 10 minutes in SDS loading buffer, analyzed by SDS/PAGE, and immunoblotted for the known MCL-1 interactor, BAK. […] The SAHB-induced dissociation of MCL-1/BAK correlated with sensitization of U937 cells to apoptosis induction by a pro-apoptotic stimulus (see below).

Another data set has as its system U937 AML cells. Description: Cell viability by MTT assay, U937. The data set is classed as cell-based. Particulars: combined with low-dose BIM SAHB. An excerpt: A cell-based screen was used to evaluate the pro-apoptotic activity of MCL-1-targeting SAHBs in MCL-1-dependent hematologic cancer cell lines, including U937 (histiocytic lymphoma), Pfeiffer (diffuse large B-cell lymphoma), OCI-AML3 (acute myeloid leukemia), K562 (chronic myelogenous leukemia) and OPM-2 (multiple myeloma) cells.
For orientation: Tetrazolium dyes change colour on reduction, which living cells bring about.

Another data set has as its system Jurkat cells. Description: Live confocal microscopy of cellular uptake and localization. The data set is classed as cell-based. Particulars: FITC-SAHB. The method, then:
In addition to FACS-based analysis, live confocal microscopy was used to visualize cellular uptake and intracellular localization of MCL-1 targeting SAHBs. For live confocal microscopy, Jurkat cells were incubated with FITC-SAHB and live cell organelle markers (e.g., dextran to label pinosomes, Mitotracker to label mitochondria). At defined time points (e.g., 4, 8, 12, and 24 hours), cells were washed twice with PBS, resuspended in PBS, wet mounted and imaged by confocal microscopy. […] Cell permeability and intracellular targeting can also be optimized through site-directed mutagenesis; for example, converting negatively charged residues to neutral or positively charged residues (e.g. SEQ ID NO: 39) can enhance cellular uptake as was previously reported (Bernal et al JACS, 2007).

Data set [4] has as its target T1, Mcl-1 ΔNΔC. Description: MCL-1 Specific Binders | Mcl-1 ΔNΔC. An excerpt: Table printed on a drawing sheet, FIGURE 9 A
Head of the field: MCL-1 Specific Binders | Mcl-1 ΔNΔC
(A) illustrates a table of KD values for MCL-1-specific and pan-anti-apoptotic binding SAHBs.
First copying reader's note: KD values with their ± error in the same cell; each column is one anti-apoptotic target protein.
Where the first naming reader finds the target: head: Mcl-1 ΔNΔC

Entries after “also recorded” stand apart in the source; their conditions may differ. Where a SMILES comes first, the peptide text is derived from it. Bridges are numbered along the chain shown (N, C = ends). [ ]: non-standard residue; d: D form. S5 = C=CCCC[C@](C)(N)C(=O)O

T1 sequence (Q07820 172-327, stated change not applied): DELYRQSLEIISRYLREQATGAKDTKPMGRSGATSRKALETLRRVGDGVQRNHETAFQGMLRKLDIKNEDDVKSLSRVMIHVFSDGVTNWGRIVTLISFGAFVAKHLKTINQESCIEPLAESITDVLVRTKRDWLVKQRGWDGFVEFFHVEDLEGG

With `CC(C)C[C@H](NC(=O)[C@H](C)NC(=O)[C@@H](N)CCCCN)C(=O)N[C@@H](CCC(=O)O)C(=O)N[C@H](C(=O)N[C@@H](CC(C)C)C(=O)N[C@@H](CCCNC(=N)N)C(=O)N[C@@]1(C)CCCC=CCCC[C@@](C)(C(=O)N[C@@H](Cc2ccccc2)C(=O)N[C@@H](CCC(N)=O)C(=O)N[C@@H](CCCNC(=N)N)C(=O)N[C@@H](CC(N)=O)C(=O)N[C@@H](Cc2c[nH]cn2)C(=O)N[C@@H](CCC(=O)O)C(=O)N[C@H](C(=O)N[C@@H](C)C(=O)N[C@@H](Cc2ccccc2)C(N)=O)[C@@H](C)O)NC(=O)[C@H](CC(=O)O)NC(=O)CNC(=O)[C@H](C(C)C)NC1=O)[C@@H](C)O` [MCL-1 SAHBA V220F], the “MCL-1ΔNΔC binding activity” value at Mcl-1 ΔNΔC [1] is “binds to both MCL-1 and BCL-XL”. Also, the “BCL-XL binding” value on recombinant BCL-XLΔC is “binds to both MCL-1 and BCL-XL”.

On to `CC(C)C[C@H](NC(=O)[C@H](CCCCN)NC(=O)[C@H](CCC(N)=O)NC(=O)[C@H](CCCNC(=N)N)NC(=O)[C@H](Cc1ccccc1)NC(=O)[C@H](CC(N)=O)NC(=O)[C@H](CC(C)C)NC(=O)[C@]1(C)CCCC=CCCC[C@](C)(NC(=O)[C@H](CCCNC(=N)N)NC(=O)[C@H](CC(C)C)NC(=O)[C@H](CCC(N)=O)NC(=O)[C@@H](NC(=O)[C@H](C)NC(=O)[C@H](CO)NC(=O)[C@H](CCC(=O)O)NC(=O)[C@@H](NC(=O)[C@H](CCC(=O)O)NC(=O)[C@@H](N)CC(C)C)C(C)C)[C@@H](C)O)C(=O)N[C@@H](Cc2ccccc2)C(=O)NCC(=O)N[C@@H](CC(=O)O)C(=O)N1)C(N)=O` [NOXA SAHB] (H-LEVESATQLR[S5]FGD[S5]LNFRQKL-NH2; staple 11-15; C-terminus assumed), for which, on recombinant BCL-XLΔC, the “BCL-XL binding” value is recorded as “did not engage”. Also, the “BFL-1/A1 binding” value with recombinant BFL-1/A1ΔC is “eliminated; also recorded: did not engage”. Moreover, the “BCL-w binding” value in the data set with recombinant BCL-wΔC is given as “did not engage”. For the same compound, in data set [2], the “binding selectivity among anti-apoptotic proteins” value was “striking selectivity for MCL-1ΔNΔC; also recorded: selective for MCL-1”. The “dissociation of MCL-1/BAK interaction in U937 cells” value in data set [3] is listed as “disrupts the MCL-1/BAK interaction”. In addition, the “sensitization of U937 cells to BIM SAHB” value in the data set on U937 AML cells was “dose-responsively sensitizes chemoresistant U937 AML cells to low-dose, pro-apoptotic BIM SAHB”. Further, the “cellular uptake and intracellular localization” value with Jurkat cells was “striking fluorescence of pinosomes at early time points and subsequent colocalization with Mitotracker”.

For orientation: Kd means the equilibrium constant for the complex coming apart. A high value points to lower affinity. Regarding LEVESXTQLXRFGDKLNFRQKL [NOXA SAHBB], binding with Mcl-1 ΔNΔC [4] was characterised by a dissociation constant (Kd) of 109 ± 32 nM.

The record behind these values is patent US9079970B2, “Methods and compositions for specific modulation of MCL-1” (Dana Farber Cancer Institute, Inc., priority 2008, dated 2015).
